# Article PMC11256326, “Discovery of Heparin Mimetic, Potent, and Selective Inhibitors of Human Clotting Factor XIIIa” (ACS Omega, 2024)
# Assays:
# FXIIIa = biological target: T1, FXIIIa (Homo sapiens, UniProt P00488); assay: FXIIIa-mediated fibrin(ogen) polymerization by SDS-PAGE; type: biochemical; settings: for effect on FXIIIa-mediated fibrin(ogen) polymerization / γ–γ dimer formation: 5–3000 μM (13), 5–2000 μM (16)
# T1 construct: purchased Haematologic Technologies; host or cells: human plasma
# T1 sequence (P00488 39-732 limits assumed): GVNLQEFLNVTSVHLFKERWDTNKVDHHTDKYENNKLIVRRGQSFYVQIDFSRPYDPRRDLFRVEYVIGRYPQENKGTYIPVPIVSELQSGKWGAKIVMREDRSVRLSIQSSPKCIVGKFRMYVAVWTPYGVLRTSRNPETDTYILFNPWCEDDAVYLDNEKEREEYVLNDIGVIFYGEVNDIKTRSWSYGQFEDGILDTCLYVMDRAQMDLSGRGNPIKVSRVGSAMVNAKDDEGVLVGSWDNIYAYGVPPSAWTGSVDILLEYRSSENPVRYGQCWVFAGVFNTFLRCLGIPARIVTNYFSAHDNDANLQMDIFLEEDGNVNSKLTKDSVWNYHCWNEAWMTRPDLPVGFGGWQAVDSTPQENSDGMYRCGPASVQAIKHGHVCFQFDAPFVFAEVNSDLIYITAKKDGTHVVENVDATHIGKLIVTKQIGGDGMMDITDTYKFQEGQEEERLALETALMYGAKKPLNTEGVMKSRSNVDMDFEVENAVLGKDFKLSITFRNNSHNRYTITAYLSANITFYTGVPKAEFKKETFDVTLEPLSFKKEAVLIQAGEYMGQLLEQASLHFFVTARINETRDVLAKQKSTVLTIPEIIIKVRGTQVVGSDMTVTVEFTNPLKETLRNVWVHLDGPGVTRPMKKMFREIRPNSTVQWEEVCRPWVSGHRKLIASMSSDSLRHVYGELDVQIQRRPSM
# Method: The effect of inhibitors 13 and 16 on FXIIIa-mediated fibrin(ogen) polymerization was investigated by sodium dodecyl sulfate-polyacrylamide gel electrophoresis (SDS-PAGE), as reported earlier.[36],[49] A solution containing 13 mg/mL fibrinogen and 2.0 μg/mL FXIIIa in Tris-HCl buffer of pH 7.4 containing 10 mM CaCl2 was either incubated with different concentrations of inhibitors 13 (5, 50, 500, 1000, 2000, and 3000 μM) or 16 (5, 50, 500, 1000, 1500, and 2000 μM) or buffer. The resulting mixture was then clotted in the presence of human α-thrombin (2.5 μg/mL). The clots were incubated for 24 h at room temperature before the addition of denaturing buffer and then incubated overnight at 25 °C. Samples were boiled in a water bath for 10 min before centrifugation at 12 000g at 20 °C for 3 min; the supernatants were examined by SDS-PAGE on homogeneous 10% cross-linked gels and stained with Coomassie Brilliant Blue. The first lane contains the protein markers, whereas the second lane contains the cross-linked fibrin(ogen) formed in the presence of human α-thrombin (Figure 7). […] In both cases, the inhibition appears to achieve 100% efficacy similar to the inhibition assay results.
# The impact of inhibitors 13 and 16 on FXIIIa-mediated fibrin polymerization was further explored via gel electrophoresis, as previously described.[36],[49] […] The resulting clots were incubated for 24 h at room temperature before the addition of denaturing buffer containing 25 mM NaH2PO4, 1.9% (w/v) SDS, 5.7 M urea, and 1.9% (w/v) DTT, followed by overnight incubation at room temperature. Subsequently, the samples were boiled in a water bath for 10 min, followed by centrifugation at 12,000g at 20 °C for 3 min; the supernatants were then analyzed by SDS-PAGE on homogeneous 10% cross-linked gels and stained with Coomassie Brilliant Blue.
# papain = biological target: T2, papain (Carica papaya, UniProt P00784); assay: papain chromogenic substrate assay; type: biochemical
# T2 construct: purchased Sigma Aldrich
# T2 sequence (P00784 134-345): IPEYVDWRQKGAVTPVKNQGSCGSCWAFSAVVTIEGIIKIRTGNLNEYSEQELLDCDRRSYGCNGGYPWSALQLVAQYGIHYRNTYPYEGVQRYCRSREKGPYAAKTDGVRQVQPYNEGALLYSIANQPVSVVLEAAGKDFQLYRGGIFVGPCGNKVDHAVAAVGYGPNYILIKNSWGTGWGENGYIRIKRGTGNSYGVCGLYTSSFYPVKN
# Excerpt: FXIIIa and TG-2 belong to the same transglutaminase superfamily, and they share similar protein folds with a sequence similarity of 34%. Although we believe that sulfonated heparin mimetics are less likely to distribute to peripheral tissues, we evaluated inhibitor 16′s potential to inhibit TG-2 (we used recombinant TG-2). […] Likewise, we studied the inhibition of papain, a related cysteine protease, by molecule 16.
# Direct inhibition of papain, a cysteine protease, by inhibitor 16 was also evaluated using a chromogenic substrate assay on a microplate reader as reported earlier.[36] Briefly, to each well of a 96-well microplate containing 91 μL of 50 mM Tris-HCl buffer, pH 7.4, containing 100 mM NaCl, 2.5 mM CaCl2, 100 mM DTT, 0.1% PEG8000, and 0.02% Tween80 was added 5 μL of inhibitor 16 (0–20 mM) or vehicle, and 3 μL of papain (130 U/mL) at 37 °C. After 5 min incubation, 1 μL of N-α-benzoyl-L-arginine 4-nitroanilide hydrochloride, the chromogenic substrate (17.7 mM) was rapidly added, and the residual enzyme activity was measured from the initial rate of increase in absorbance at 405 nm. Relative residual enzyme activity as a function of the inhibitor concentration was measured and inhibition parameters were calculated using logistic eq 1.
SMILES,efficacy of inhibition of fibrin(ogen) polymerization (FXIIIa) [%],effect on FXIIIa-mediated fibrin(ogen) polymerization / γ–γ dimer formation (FXIIIa),selectivity for FXIIIa over papain (papain) [fold],papain inhibition at the highest concentration tested (papain; 500 μM)
Nc1c(/N=N/c2ccc(S(=O)(=O)CCOS(=O)(=O)O)cc2)c(S(=O)(=O)O)cc2cc(S(=O)(=O)O)c(/N=N/c3ccc(S(=O)(=O)CCOS(=O)(=O)O)cc3)c(O)c12 [compound 16],~100,concentration-dependently inhibited,> 200,did not inhibit
Nc1c(S(=O)(=O)O)cc(Nc2ccc(Nc3nc(Cl)nc(Nc4ccccc4S(=O)(=O)O)n3)c(S(=O)(=O)O)c2)c2c1C(=O)c1ccccc1C2=O [compound 13],~100,concentration-dependently inhibited,–,–
